System: KRAS patient-derived spheroids with HUVEC/MSC, viability
Experiment: Anticancer human tumor 941728-121-R-J1-PDC patient-derived lung adenocarcinoma cell line growth inhibition [KRAS2]
Conditions: for viability, T/C: stronger effect = lower value
Method in brief: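 Combination screen of spheroid viability in tumor-cell co-cultures with endothelial (HUVEC) and mesenchymal stem cell stroma. Each agent was tested in half-log dilutions, topping at clinical Cmax or at 10 microM without a known Cmax.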

[1] = curve of first compound, second compound 0.1 µM
[2] = curve of first compound, second compound 0.316 µM
[3] = curve of first compound, second compound 1 µM
[4] = curve of first compound, second compound 3.16 µM
[5] = curve of first compound, second compound 10 µM
[6] = second compound 0.1 µM, first compound 0.000316 µM
[7] = second compound 0.1 µM, first compound 0.001 µM
[8] = second compound 0.1 µM, first compound 0.00316 µM
[9] = second compound 0.1 µM, first compound 0.01 µM
[10] = second compound 0.1 µM, first compound 0.0316 µM
[11] = second compound 0.1 µM, first compound 0.1 µM
[12] = second compound 0.316 µM, first compound 0.000316 µM
[13] = second compound 0.316 µM, first compound 0.001 µM
[14] = second compound 0.316 µM, first compound 0.00316 µM
[15] = second compound 0.316 µM, first compound 0.01 µM
[16] = second compound 0.316 µM, first compound 0.0316 µM
[17] = second compound 0.316 µM, first compound 0.1 µM
[18] = second compound 1 µM, first compound 0.000316 µM
[19] = second compound 1 µM, first compound 0.001 µM
[20] = second compound 1 µM, first compound 0.00316 µM
[21] = second compound 1 µM, first compound 0.01 µM
[22] = second compound 1 µM, first compound 0.0316 µM
[23] = second compound 1 µM, first compound 0.1 µM
[24] = second compound 3.16 µM, first compound 0.000316 µM
[25] = second compound 3.16 µM, first compound 0.001 µM
[26] = second compound 3.16 µM, first compound 0.00316 µM
[27] = second compound 3.16 µM, first compound 0.01 µM
[28] = second compound 3.16 µM, first compound 0.0316 µM
[29] = second compound 3.16 µM, first compound 0.1 µM
[30] = second compound 10 µM, first compound 0.000316 µM
[31] = second compound 10 µM, first compound 0.001 µM
[32] = second compound 10 µM, first compound 0.00316 µM
[33] = second compound 10 µM, first compound 0.01 µM
[34] = second compound 10 µM, first compound 0.0316 µM
[35] = second compound 10 µM, first compound 0.1 µM
[36] = second compound 0.1 µM, first compound 0.316 µM
[37] = second compound 0.1 µM, first compound 1 µM
[38] = second compound 0.1 µM, first compound 3.16 µM
[39] = second compound 0.1 µM, first compound 10 µM
[40] = second compound 0.316 µM, first compound 0.316 µM
[41] = second compound 0.316 µM, first compound 1 µM
[42] = second compound 0.316 µM, first compound 3.16 µM
[43] = second compound 0.316 µM, first compound 10 µM
[44] = second compound 1 µM, first compound 0.316 µM
[45] = second compound 1 µM, first compound 1 µM
[46] = second compound 1 µM, first compound 3.16 µM
[47] = second compound 1 µM, first compound 10 µM
[48] = second compound 3.16 µM, first compound 0.316 µM
[49] = second compound 3.16 µM, first compound 1 µM
[50] = second compound 3.16 µM, first compound 3.16 µM
[51] = second compound 3.16 µM, first compound 10 µM
[52] = second compound 10 µM, first compound 0.316 µM
[53] = second compound 10 µM, first compound 1 µM
[54] = second compound 10 µM, first compound 3.16 µM
[55] = second compound 10 µM, first compound 10 µM
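Note: spheroids exposed to agents for seven days before readout.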

Cn1ncnc1[C@H]1c2n[nH]c(=O)c3cc(F)cc(c23)N[C@@H]1c1ccc(F)cc1 + CC1OCC2(CCN(c3cnc(Sc4ccnc(N)c4Cl)c(N)n3)CC2)C1N
IC50 [1]: 0.334 nM | IC50 [2]: < 0.316 nM | IC50 [3]: < 0.316 nM | IC50 [4]: < 0.316 nM | IC50 [5]: < 0.316 nM | viability, T/C [6]: 49.5% | viability, T/C [7]: 50% | viability, T/C [8]: 43.2% | viability, T/C [9]: 44.7% | viability, T/C [10]: 44.2% | viability, T/C [11]: 46.5% | viability, T/C [12]: 37.7% | viability, T/C [13]: 28.5% | viability, T/C [14]: 26.1% | viability, T/C [15]: 32.7% | viability, T/C [16]: 28.1% | viability, T/C [17]: 28.1% | viability, T/C [18]: 28.7% | viability, T/C [19]: 25.9% | viability, T/C [20]: 22.2% | viability, T/C [21]: 20.6% | viability, T/C [22]: 19.2% | viability, T/C [23]: 26.4% | viability, T/C [24]: 26.6% | viability, T/C [25]: 24.8% | viability, T/C [26]: 25.3% | viability, T/C [27]: 20% | viability, T/C [28]: 14.4% | viability, T/C [29]: 19.3% | viability, T/C [30]: 23.8% | viability, T/C [31]: 21.5% | viability, T/C [32]: 19.9% | viability, T/C [33]: 18.9% | viability, T/C [34]: 18.3% | viability, T/C [35]: 14.7%

CN(C)C/C=C/C(=O)Nc1cc2c(Nc3ccc(F)c(Cl)c3)ncnc2cc1O[C@H]1CCOC1 + CC1OCC2(CCN(c3cnc(Sc4ccnc(N)c4Cl)c(N)n3)CC2)C1N
IC50 [1]: < 0.316 nM | IC50 [2]: < 0.316 nM | IC50 [3]: > 100 nM | IC50 [4]: < 0.316 nM | IC50 [5]: 0.52 nM | viability, T/C [6]: 38.3% | viability, T/C [7]: 41.9% | viability, T/C [8]: 45.5% | viability, T/C [9]: 44.5% | viability, T/C [10]: 41.4% | viability, T/C [11]: 43.3% | viability, T/C [12]: 33.7% | viability, T/C [13]: 35.2% | viability, T/C [14]: 43.1% | viability, T/C [15]: 42.3% | viability, T/C [16]: 45.8% | viability, T/C [17]: 41.2% | viability, T/C [18]: 70.1% | viability, T/C [19]: 52.4% | viability, T/C [20]: 63.1% | viability, T/C [21]: 70.6% | viability, T/C [22]: 58.4% | viability, T/C [23]: 51.9% | viability, T/C [24]: 29.7% | viability, T/C [25]: 28.3% | viability, T/C [26]: 30.2% | viability, T/C [27]: 31.6% | viability, T/C [28]: 31.3% | viability, T/C [29]: 36.7% | viability, T/C [30]: 54.6% | viability, T/C [31]: 45% | viability, T/C [32]: 30.6% | viability, T/C [33]: 52.5% | viability, T/C [34]: 31.3% | viability, T/C [35]: 31%

CC(C)NCC(C(=O)N1CCN(c2ncnc3c2C(C)CC3O)CC1)c1ccc(Cl)cc1 (centres undefined) + CNCc1ccccc1-c1csc(C(C)Nc2nc(C)nc3cc(OC)c(OC)cc23)c1
IC50 [1]: 218 nM | IC50 [2]: < 31.6 nM | IC50 [3]: < 31.6 nM | IC50 [4]: < 31.6 nM | IC50 [5]: < 31.6 nM | viability, T/C [10]: 68.6% | viability, T/C [11]: 57% | viability, T/C [36]: 47.9% | viability, T/C [37]: 33.3% | viability, T/C [38]: 28.1% | viability, T/C [39]: 16.6% | viability, T/C [16]: 42.3% | viability, T/C [17]: 42.9% | viability, T/C [40]: 29.1% | viability, T/C [41]: 24.7% | viability, T/C [42]: 22.4% | viability, T/C [43]: 12.4% | viability, T/C [22]: 23.9% | viability, T/C [23]: 33.2% | viability, T/C [44]: 21.2% | viability, T/C [45]: 16.1% | viability, T/C [46]: 6.11% | viability, T/C [47]: 4.4% | viability, T/C [28]: 0.08% | viability, T/C [29]: 0.12% | viability, T/C [48]: 0.11% | viability, T/C [49]: 0.08% | viability, T/C [50]: 0.04% | viability, T/C [51]: 0.16% | viability, T/C [34]: 0.16% | viability, T/C [35]: 0.15% | viability, T/C [52]: 0.12% | viability, T/C [53]: 1.66% | viability, T/C [54]: 0.11% | viability, T/C [55]: 0.25%

CCN1CCN(Cc2ccc(Nc3ncc(F)c(-c4cc(F)c5nc(C)n(C(C)C)c5c4)n3)nc2)CC1
viability, T/C (compound 0.00316 µM): 86.1% [middle of 5 runs] | viability, T/C (compound 0.01 µM): 71.3% [middle of 5 runs] | viability, T/C (compound 0.0316 µM): 60.2% [middle of 5 runs] | viability, T/C (compound 0.1 µM): 59.9% [middle of 5 runs] | viability, T/C (compound 0.316 µM): 60.4% [middle of 5 runs] | viability, T/C (compound 1 µM): 74.5% [middle of 5 runs] | IC50 (curve of compound): > 1000 nM

COc1cc2nccc(Oc3ccc(NC(=O)C4(C(=O)Nc5ccc(F)cc5)CC4)cc3)c2cc1OC + CNCc1ccccc1-c1csc(C(C)Nc2nc(C)nc3cc(OC)c(OC)cc23)c1
IC50 [1]: 85.5 nM | IC50 [2]: < 31.6 nM | IC50 [3]: < 31.6 nM | IC50 [4]: < 31.6 nM | IC50 [5]: < 31.6 nM | viability, T/C [10]: 59.8% | viability, T/C [11]: 46.5% | viability, T/C [36]: 42.2% | viability, T/C [37]: 39.7% | viability, T/C [38]: 19.2% | viability, T/C [39]: 39.2% | viability, T/C [16]: 39% | viability, T/C [17]: 34.5% | viability, T/C [40]: 28.8% | viability, T/C [41]: 21.3% | viability, T/C [42]: 12.4% | viability, T/C [43]: 25.4% | viability, T/C [22]: 16.1% | viability, T/C [23]: 21% | viability, T/C [44]: 10.2% | viability, T/C [45]: 5.77% | viability, T/C [46]: 2.51% | viability, T/C [47]: 8.64% | viability, T/C [28]: 0.1% | viability, T/C [29]: 0.43% | viability, T/C [48]: 0.05% | viability, T/C [49]: 0.1% | viability, T/C [50]: 0.03% | viability, T/C [51]: 0.12% | viability, T/C [34]: 0.36% | viability, T/C [35]: 0.07% | viability, T/C [52]: 0.08% | viability, T/C [53]: 0.08% | viability, T/C [54]: 0.31% | viability, T/C [55]: 0.21%

CCNC(=O)CC1N=C(c2ccc(Cl)cc2)c2cc(OC)ccc2-n2c(C)nnc21 (centres undefined)
viability, T/C (compound 0.0316 µM): 94% [middle of 5 runs] | viability, T/C (compound 0.316 µM): 61.8% [middle of 5 runs]

Source: PubChem BioAssay AID1963862 (Molecular Pharmacology Branch, DTP, NCI, 2024)
